Test in all cases: growth of human tumour cells (NCI), 48 h
Assay [1] relates to A498.
The subject of assay [2] is BT-549.
For assay [3], the system named is EKVX.
Assay [4] concerns HCT-116.
The test system of assay [5] is HOP-62.
Assay [6] relates to Hs-578T.
Assay [7] concerns KM12.
In assay [8] the test system is LOX IMVI.
In assay [9] the test system is MDA-MB-435.
Assay [10] deals with NCI-H226.
Assay [11] has as its system NCI-H460.
Assay [12] concerns PC-3.
For assay [13], the system named is SF-268.
The test system of assay [14] is SF-295.
For assay [15], the system named is SK-MEL-28.
For assay [16], the system named is SN12C.
Assay [17] has as its system SR.
In assay [18] the test system is U-251.
Assay [19] relates to UACC-62.
For assay [20], the system named is UO-31.

SMILES strings stand for the structures.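 Each compound was tested at five concentrations against cells in 96-well plates for 48 hours. GI50: concentration for 50% inhibition of growth.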 Active and inactive are the calls of the source. No stated cut-off is given here; in the data, active = GI50 up to about 1.1 µM and inactive = higher.

With `C=C1CC(Cn2ccc(=O)[nH]c2=O)(c2ccc(OC)cc2)OC1=O` (stereo not given), the GI50 was 15.3 µM (inactive) in assay [1]; 12.2 µM (inactive) in assay [2]; 19.5 µM (inactive) in assay [3]; 6.15 µM (inactive) in assay [4]; 47.4 µM (inactive) in [5]; 18.1 µM (inactive) in assay [6]. For the same compound, the GI50 is 18.8 µM (inactive) in [7]; 10.9 µM (inactive) in assay [8]; 15.8 µM (inactive) in assay [9]; 16.3 µM (inactive) in assay [10]; 40.6 µM (inactive) in assay [11]; 16 µM (inactive) in [12]. Moreover, the GI50 is 23.9 µM (inactive) in assay [13]; 34.7 µM (inactive) in assay [14]; 18 µM (inactive) in [15]; 13.8 µM (inactive) in assay [16]; 2.9 µM (inactive) in assay [17]; 22.3 µM (inactive) in assay [18]. Besides, the GI50 in assay [19] was 14.3 µM (inactive); in [20], 17.2 µM (inactive).

As to `O=C1/C(=C/c2ccccc2)CCc2ccccc21`, the GI50 was 16.9 µM (inactive) in [1]; 16.2 µM (inactive) in [2]; 17.8 µM (inactive) in assay [3]; 15.1 µM (inactive) in [4]; 15.7 µM (inactive) in [5]; 19.8 µM (inactive) in assay [6]. For the same compound, the GI50 in assay [7] was 18 µM (inactive); in assay [8] it was 16.8 µM (inactive); in [9], 14.8 µM (inactive); in assay [10], 18.3 µM (inactive); in assay [11], 26.1 µM (inactive); in [12] it was 19 µM (inactive). The GI50 is 19.7 µM (inactive) in assay [13]; 17.7 µM (inactive) in assay [14]; 19 µM (inactive) in assay [15]; 21.9 µM (inactive) in assay [16]; 9.71 µM (inactive) in assay [17]; 16.2 µM (inactive) in assay [18]. In addition, the GI50 is 17.9 µM (inactive) in assay [19] and 14.6 µM (inactive) in [20].

On to `O=c1oc2ccc3ccccc3c2cc1-c1nc2ccccc2o1`, for which the GI50 in assay [1] is 25.9 µM (inactive); in [2] it was 31.3 µM (inactive); in assay [3] it was 20.6 µM (inactive); in [4], 21.7 µM (inactive); in assay [5], 18.6 µM (inactive); in assay [6], 21.4 µM (inactive). Besides, the GI50 was 27.3 µM (inactive) in [7]; 16.6 µM (inactive) in assay [8]; 23.2 µM (inactive) in assay [9]; 22.5 µM (inactive) in [10]; 27.5 µM (inactive) in assay [11]; 28.1 µM (inactive) in [12]. In addition, the GI50 is 22.1 µM (inactive) in [13]; 26.2 µM (inactive) in [14]; 22.6 µM (inactive) in [15]; 22.6 µM (inactive) in assay [16]; 16.2 µM (inactive) in assay [17]; 22.2 µM (inactive) in assay [18]. Further, the GI50 is 36.1 µM (inactive) in [19] and 30.9 µM (inactive) in [20].

Consider `COc1cc2c(cc1O)NC(=S)[C@@H]1CCCN1C2=O`, for which the GI50 in [1], in [2], in assay [3], in assay [4], in assay [5] and in assay [6] was > 100 µM (inactive) in each case. The GI50 in assay [7], in assay [8], in assay [9], in [10], in [11] and in assay [12] was > 100 µM (inactive) throughout. Further, the GI50 in assay [13] was > 100 µM (inactive); in assay [14], 97.1 µM (inactive); in assay [15], > 100 µM (inactive); in assay [16], > 100 µM (inactive); in assay [17] it was 50.1 µM (inactive); in [18], > 100 µM (inactive). The GI50 in [19] and in [20] was > 100 µM (inactive) in each case.

As for `ClCc1nc2ccccc2[nH]1`, the GI50 is > 100 µM (inactive) in [1]; 42.8 µM (inactive) in [2]; > 100 µM (inactive) in assay [3]; > 100 µM (inactive) in [4]; > 100 µM (inactive) in [5]; > 100 µM (inactive) in assay [6]. Moreover, the GI50 is > 100 µM (inactive) in assay [7]; 37.2 µM (inactive) in [8]; > 100 µM (inactive) in [9]; > 100 µM (inactive) in assay [10]; > 100 µM (inactive) in assay [11]; > 100 µM (inactive) in assay [12]. The GI50 in assay [13] is > 100 µM (inactive); in assay [14], > 100 µM (inactive); in assay [15] it was > 100 µM (inactive); in [16], > 100 µM (inactive); in [17], 56 µM (inactive); in [18] it was > 100 µM (inactive). Further, the GI50 in [19] and in assay [20] was > 100 µM (inactive) throughout.

As to `FC(F)(F)c1ccc2c(c1)nc(-c1ccccc1)n2CC1CCCN2CCCCC12` (stereo not given), the GI50 was 22.2 µM (inactive) in [1]; 16.7 µM (inactive) in assay [2]; 29.2 µM (inactive) in assay [3]; 16.4 µM (inactive) in assay [4]; 27.5 µM (inactive) in assay [5]; 16.8 µM (inactive) in assay [6]. Further, the GI50 in [7] is 19.2 µM (inactive); in [8], 15.4 µM (inactive); in assay [9] it was 18.3 µM (inactive); in assay [10], 20.8 µM (inactive); in assay [11] it was 19.6 µM (inactive); in assay [12], 15.3 µM (inactive). Besides, the GI50 in [13] is 15.6 µM (inactive); in assay [14], 15.1 µM (inactive); in assay [15], 18.2 µM (inactive); in assay [16], 18.6 µM (inactive); in assay [17] it was 17.6 µM (inactive); in [18], 20.3 µM (inactive). Moreover, the figures for the GI50 in assay [19] and in assay [20] were 16.6 µM (inactive) and 0.27 µM (active), respectively.

Take `O=C(/C=C1\Nc2ccc([N+](=O)[O-])cc2N\C1=C/C(=O)c1ccc(F)cc1)c1ccc(F)cc1`: the GI50 in assay [1] was 19.6 µM (inactive); in assay [2], 31.1 µM (inactive); in [3], 45.9 µM (inactive); in assay [4] it was 32.5 µM (inactive); in assay [5] it was 7.35 µM (inactive); in assay [6], 14.9 µM (inactive). Also, the GI50 in assay [7] is > 100 µM (inactive); in assay [8], > 100 µM (inactive); in assay [9], > 100 µM (inactive); in assay [10] it was 27.1 µM (inactive); in assay [11], 46.3 µM (inactive); in assay [12] it was > 100 µM (inactive). Besides, the GI50 in assay [13] was 9.71 µM (inactive); in [14] it was 14.9 µM (inactive); in assay [15] it was > 100 µM (inactive); in [16] it was 90.2 µM (inactive); in [17], 16.8 µM (inactive); in [18] it was 10.2 µM (inactive). Besides, the GI50 in [19] is 29.4 µM (inactive); in assay [20], > 100 µM (inactive).

`CCCN(CCCc1ccccc1)CCc1ccc2[nH]c(=S)[nH]c2c1`: the GI50 was > 100 µM (inactive) in assay [1]; 68.9 µM (inactive) in assay [2]; 58.9 µM (inactive) in assay [3]; 13.1 µM (inactive) in [4]; 26.5 µM (inactive) in assay [5]; 39.8 µM (inactive) in assay [6]. The GI50 in [7] was 26.1 µM (inactive); in [8] it was 31.3 µM (inactive); in [9], 18.7 µM (inactive); in assay [10] it was 66.5 µM (inactive); in [11] it was 13.2 µM (inactive); in assay [12], 41.6 µM (inactive). In addition, the GI50 in [13] is 52.4 µM (inactive); in assay [14], 12.4 µM (inactive); in assay [15], 20.1 µM (inactive); in [16], > 100 µM (inactive); in assay [17], 2.89 µM (inactive); in [18], 33.4 µM (inactive). The GI50 in assay [19] is 31 µM (inactive); in assay [20] it was 6.75 µM (inactive).

Regarding `c1ccc([C@@H]2N[C@@]3(CO[Si](c4ccccc4)(c4ccccc4)c4ccccc4)CC[C@H]4CN[C@@H]2[C@H]43)cc1`, the GI50 is 15.3 µM (inactive) in assay [1]; 20.9 µM (inactive) in assay [2]; 15.3 µM (inactive) in assay [3]; 3.23 µM (inactive) in assay [4]; 16.6 µM (inactive) in assay [5]; 13.8 µM (inactive) in assay [6]. For the same compound, the GI50 in assay [7] was 3.62 µM (inactive); in assay [8] it was 10.4 µM (inactive); in assay [9], 8.51 µM (inactive); in assay [10], 12.4 µM (inactive); in [11], 10.4 µM (inactive); in [12], 9.06 µM (inactive). Besides, the GI50 in assay [13] is 4.63 µM (inactive); in assay [14] it was 12.4 µM (inactive); in assay [15], 14.9 µM (inactive); in assay [16], 13.2 µM (inactive); in assay [17], 3.15 µM (inactive); in [18] it was 16.9 µM (inactive). Further, the GI50 was 14.3 µM (inactive) in [19] and 10.8 µM (inactive) in [20].

As for `CC[C@H](C)C(=O)O[C@H]1CCC=C2C=C[C@H](C)[C@H](CC[C@@H]3C[C@@H](O)CC(=O)O3)[C@H]21` [MEVASTATIN], the GI50 in assay [1] is 5.43 µM (inactive); in assay [2], 4.75 µM (inactive); in assay [3] it was > 38.9 µM (inactive); in assay [4], 17.1 µM (inactive); in assay [5], > 100 µM (inactive); in [6], 3.42 µM (inactive). Also, the GI50 in assay [7] was 37 µM (inactive); in assay [8], 1.97 µM (inactive); in assay [9], 24.1 µM (inactive); in [10] it was 25.4 µM (inactive); in [11], 28 µM (inactive); in assay [12], 2.26 µM (inactive). In addition, the GI50 was 7.31 µM (inactive) in assay [13]; 3.27 µM (inactive) in [14]; 60.7 µM (inactive) in assay [15]; > 78.9 µM (inactive) in assay [16]; 8.73 µM (inactive) in assay [17]; 3.62 µM (inactive) in assay [18]. In addition, the GI50 was 5.68 µM (inactive) in assay [19] and 9.06 µM (inactive) in [20].

Source of the values: ChEMBL document CHEMBL1201862, “PubChem BioAssay data set” (2004).
